Our source for the half-life and Papp A→B values is ChEMBL document CHEMBL5352405, “Discovery of azaspirocyclic 1H-3,4,5-Trisubstitued pyrazoles as novel G2019S-LRRK2 selective kinase inhibitors” (Eur J Med Chem, 2022).

A word on the half-life: it is the time in which the quantity being followed falls by half. A higher half-life goes with slow loss. One may read the Papp A→B as how fast a substance crosses the layer from the apical side. Read a low Papp A→B as poor permeation.

Series [1] is described as follows: in vitro. The note with it: mouse, liver microsomes.
A short description of series [2]: in vitro. The note with it: human, Caco-2.

As to `Cc1[nH]nc(-c2ccncc2)c1-c1ccc(-c2cccc(S(N)(=O)=O)c2)c(C2CC2)c1`, the half-life in the series “in vitro [1]” came out at 30 min. The apparent permeability from apical to basolateral (Papp A→B) in “in vitro [2]” worked out at 8.8 ×10⁻⁶ cm/s.
